Measured values from patent US7235569B2, “Piperidinyl indole and tetrohydropyridinyl indole derivatives and method of their use” (Wyeth, priority 2003, dated 2007).
Read-outs that look alike come from different tables or passages of the source.

What was measured:
5-HT transporter = target: T1, 5-HT transporter (Rattus norvegicus, UniProt P31652); experiment: Rat Brain 3H-Paroxetine Binding Assay (RB 5HT Transporter)
T1 construct: frontal cortical membranes prepared from male S.D. rats; from tissue; host or cells: frontal cortical membranes of male Sprague-Dawley rats
Protocol: Rat Brain ^3H-Paroxetine Binding Assay (RB 5HT Transporter)
This assay was used to determine a compound's affinity of the 5-HT transporter. […] Briefly, frontal cortical membranes prepared from male S.D. rats were incubated with ^3H-parxetine (0.1 nM) for 60 min. at 25° C. All tubes also contained either vehicle, test compound (one to eight concentrations), or a saturating concentration of fluoxetine (10 μM) to define […]. All reactions are terminated by the addition of ice cold Tris buffer followed by rapid filtration using a Tom Tech filtration device to separate bound from free ^3H-paroxetine.

human 5-HT1A receptors = target: T2, human 5-HT1A receptors (Homo sapiens, UniProt P08908); experiment: [3H] 8-OH-DPAT displacement from 5-HT1A receptor (CHO cells stably transfected); format: binding; details: for inhibition at 1 µM: read-out: 5-HT1A % inhibition at 1 μM, cells marked * in the 5-HT1A column
T2 construct: expressed in transfected cells
T2 sequence (P08908 1-422): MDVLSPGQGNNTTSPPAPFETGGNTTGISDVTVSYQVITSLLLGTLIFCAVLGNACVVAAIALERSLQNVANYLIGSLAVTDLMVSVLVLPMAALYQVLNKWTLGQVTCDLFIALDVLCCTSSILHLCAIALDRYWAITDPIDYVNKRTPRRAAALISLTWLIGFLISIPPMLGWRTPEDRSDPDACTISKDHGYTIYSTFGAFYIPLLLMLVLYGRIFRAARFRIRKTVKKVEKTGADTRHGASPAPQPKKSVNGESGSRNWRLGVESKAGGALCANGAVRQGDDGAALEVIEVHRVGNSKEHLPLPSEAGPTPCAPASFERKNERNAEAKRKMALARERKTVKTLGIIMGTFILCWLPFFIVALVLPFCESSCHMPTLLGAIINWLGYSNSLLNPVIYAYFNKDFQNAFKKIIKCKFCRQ

Human 5-HT Transporter = Human 5-HT Transporter (Homo sapiens, UniProt P31645); experiment: cell-based
Protocol: On the day of assay, vehicle, excess of fluoxetine, or test compound is added to various wells on the plate. All wells then receive ^3H-5-HT and are incubated at 37° C. for 5 min. The wells are then washed with ice cold 50 mM Tris HCl (pH 7.4) buffer and aspirated to remove free ^3H-5-HT. 25 μl of 0.25 M NaOH is then added to each well to lyse the cells and 75 μl scintillation cocktail (Microscint™ 20) added prior to quantitation on a Packard TopCount machine. Tubes with vehicle represent total possible uptake, radioactivity counted in tubes with fluoxetine represent nonspecific binding/uptake and is subtracted from the total possible uptake to give total possible specific uptake. […] Specific uptake is then expressed as a % of control values and is analyzed using nonlinear regression analysis (Prizm) to determine IC50 values.

[1] = rat frontal cortical membranes, 3H-paroxetine 0.1 nM, read-out: RB-5HT Transporter Ki

T1 sequence (P31652 whole entry): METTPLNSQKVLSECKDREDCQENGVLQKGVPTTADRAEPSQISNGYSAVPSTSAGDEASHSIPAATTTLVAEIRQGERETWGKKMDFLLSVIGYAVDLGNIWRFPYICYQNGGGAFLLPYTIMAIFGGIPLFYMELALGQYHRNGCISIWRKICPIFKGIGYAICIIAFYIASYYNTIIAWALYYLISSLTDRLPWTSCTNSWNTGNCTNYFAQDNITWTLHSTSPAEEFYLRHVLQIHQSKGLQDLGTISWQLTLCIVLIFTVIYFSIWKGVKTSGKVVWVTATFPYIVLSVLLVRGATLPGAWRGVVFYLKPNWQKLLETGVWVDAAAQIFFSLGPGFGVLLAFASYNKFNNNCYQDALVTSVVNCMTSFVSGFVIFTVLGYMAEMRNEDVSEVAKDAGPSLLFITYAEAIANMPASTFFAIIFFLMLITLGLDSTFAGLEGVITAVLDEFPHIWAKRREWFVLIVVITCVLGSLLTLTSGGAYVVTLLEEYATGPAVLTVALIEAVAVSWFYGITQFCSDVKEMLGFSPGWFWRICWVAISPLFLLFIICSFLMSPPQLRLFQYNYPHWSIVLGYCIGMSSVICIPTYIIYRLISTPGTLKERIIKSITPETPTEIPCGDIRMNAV
Sequence of Human 5-HT Transporter (P31645 whole entry): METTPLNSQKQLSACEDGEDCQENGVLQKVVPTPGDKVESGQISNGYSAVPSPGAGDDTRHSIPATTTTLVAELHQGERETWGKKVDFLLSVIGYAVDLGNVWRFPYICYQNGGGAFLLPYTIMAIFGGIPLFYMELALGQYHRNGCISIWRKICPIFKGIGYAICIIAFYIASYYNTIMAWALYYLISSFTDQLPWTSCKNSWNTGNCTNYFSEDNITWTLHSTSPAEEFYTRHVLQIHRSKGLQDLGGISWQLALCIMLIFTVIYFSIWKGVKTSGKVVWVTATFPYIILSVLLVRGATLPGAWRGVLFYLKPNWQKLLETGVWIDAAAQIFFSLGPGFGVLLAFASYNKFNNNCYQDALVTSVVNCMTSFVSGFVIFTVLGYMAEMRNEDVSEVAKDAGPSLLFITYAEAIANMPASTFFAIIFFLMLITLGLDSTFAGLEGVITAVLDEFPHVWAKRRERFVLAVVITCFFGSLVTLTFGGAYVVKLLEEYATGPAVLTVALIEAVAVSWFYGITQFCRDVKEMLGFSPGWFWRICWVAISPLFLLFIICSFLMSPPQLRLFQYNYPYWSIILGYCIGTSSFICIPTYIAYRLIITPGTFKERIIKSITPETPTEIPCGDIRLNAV

Compound | Ki (5-HT transporter) [nM] | Ki (human 5-HT1A receptors) [nM] | melting point [°C] | Ki (Human 5-HT Transporter) [nM] | Ki (5-HT transporter; [1]) [nM] | Ki (human 5-HT1A receptors; [3H] 8-OH-DPAT displacement, CHO cells with human 5-HT1A, read-out: 5-HT1A Ki) [nM] | inhibition at 1 µM (human 5-HT1A receptors) [%]
Cn1cc(C2=CCN(CCc3coc4ccccc34)CC2)c2ccccc21 [Compound 2, 3-{1-[2-(1-benzofuran-3-yl)ethyl]-1,2,3,6-tetrahydro-4-pyridinyl}-1-methyl-1H-indole] | 6 | 18.3 |  |  |  |  | 
COc1ccc2c(CCN3CC=C(c4c[nH]c5cc(C#N)ccc45)CC3)coc2c1 [Compound 13, 3-{1-[2-(6-methoxy-1-benzofuran-3-yl)ethyl]-1,2,3,6-tetrahydro-4-pyridinyl}-6-cyano-1H-indole] | 3.36 | 12.7 | 181 | 34.1 |  |  | 
C1=C(c2c[nH]c3ccccc23)CCN(CCc2csc3ccccc23)C1 [Compound 28, 3-{1-[2-(1-benzothiophene-3-yl)ethyl]-1,2,3,6-tetrahydro-4-pyridinyl}-1H-indole] | 6.25 | 67.9 | 195 to 198 | 11.1 |  |  | 
C=CCn1cc(C2=CCN(CCc3csc4ccccc34)CC2)c2ccccc21 [Compound 29, 3-{1-[2-(1-benzothiophene-3-yl)ethyl]-1,2,3,6-tetrahydro-4-pyridinyl}-1-(2-propenyl)-1H-indole] |  |  |  | 1120 | 104 | 243 | 
Cn1cc(C2=CCN(CCc3csc4ccccc34)CC2)c2ccccc21 [Compound 30, 3-{1-[2-(1-benzothiophene-3-yl)ethyl]-1,2,3,6-tetrahydro-4-pyridinyl}-1-methyl-1H-indole] | 13 | 53.1 |  | 421 |  |  | 
Clc1ccc2scc(CCN3CC=C(c4c[nH]c5ccccc45)CC3)c2c1 [Compound 31, 3-{1-[2-(5-chloro-1-benzothiophene-3-yl)ethyl]-1,2,3,6-tetrahydro-4-pyridinyl}-1H-indole] |  |  |  | 2900 | 172 |  | 29
C=CCn1cc(C2=CCN(CCc3csc4ccc(Cl)cc34)CC2)c2ccccc21 [Compound 32, 3-{1-[2-(5-chloro-1-benzothiophene-3-yl)ethyl]-1,2,3,6-tetrahydro-4-pyridinyl}-1-(2-propenyl)-1H-indole] |  |  |  |  | 132 |  | 34
Cn1cc(C2=CCN(CCc3csc4ccc(Cl)cc34)CC2)c2ccccc21 [Compound 33, 3-{1-[2-(5-chloro-1-benzothiophene-3-yl)ethyl]-1,2,3,6-tetrahydro-4-pyridinyl}-1-methyl-1H-indole] | 39 |  |  |  |  |  | 45
c1ccc2c(c1)ccc1c(CCN3CCC(c4c[nH]c5ccccc45)CC3)coc12 [Compound 34, 3-{1-(2-Naphtho[1,2-b]furan-3-yl-ethyl)-piperidin-4-yl]-1H-indole] |  |  |  | 276 | 62 |  | 48
CC(CN1CC=C(c2c[nH]c3ccccc23)CC1)c1coc2ccccc12 (centres unmarked) [Compound 35, 3-{1-[2-(1-benzofuran-3-yl)propyl]-1,2,3,6-tetrahydro-4-pyridinyl}-1H-indole] | 16 |  |  | 130 |  |  | 28
CC(CN1CC=C(c2c[nH]c3cc(F)ccc23)CC1)c1coc2ccccc12 (centres unmarked) [Compound 36, 3-{1-[2-(1-benzofuran-3-yl)propyl]-1,2,3,6-tetrahydro-4-pyridinyl}-6-fluoro-1H-indole] | 4.43 |  |  | 42 |  |  | 11
CC(CN1CC=C(c2c[nH]c3ccc(F)cc23)CC1)c1coc2ccccc12 (centres unmarked) [Compound 37, 3-{1-[2-(1-benzofuran-3-yl)propyl]-1,2,3,6-tetrahydro-4-pyridinyl}-5-fluoro-1H-indole] | 21 |  |  | 152 |  |  | 20
COc1cccc2c(CC(C)N3CC=C(c4c[nH]c5ccccc45)CC3)coc12 (centres unmarked) [Compound 41, 3-{1-[2-(7-methoxy-1-benzofuran-3-yl)-1-methylethyl]-1,2,3,6-tetrahydro-4-pyridinyl}-1H-indole] | 8.93 | 11.5 |  | 68.8 |  |  | 
COc1cccc2c(CC(C)N3CC=C(c4c[nH]c5cc(F)ccc45)CC3)coc12 (centres unmarked) [Compound 42, 3-{1-[2-(7-methoxy-1-benzofuran-3-yl)-1-methylethyl]-1,2,3,6-tetrahydro-4-pyridinyl}-6-fluoro-1H-indole] | 3.74 | 69.4 |  | 48.7 |  |  | 
COc1ccc2occ(CC(C)N3CC=C(c4c[nH]c5ccccc45)CC3)c2c1 (centres unmarked) [Compound 43, 3-{1-[2-(5-methoxy-1-benzofuran-3-yl)-1-methylethyl]-1,2,3,6-tetrahydro-4-pyridinyl}-1H-indole] | 12 |  |  | 144 |  |  | 34
Clc1ccc2occ(CCN3CC=C(c4cnc5ccccn45)CC3)c2c1 [Compound 44, 3-{1-[2-(5-chloro-1-benzofuran-3-yl)ethyl]-1,2,3,6-tetrahydropyridin-4-yl}imidazo[1,2-a]pyridine] | 97 |  |  | 63.8 |  |  | 44
